# Assay results: article PMC7413254 (Nature Communications, 2020)
# Where two headings read alike, the source gives them in different places.
# Assays:
# [1] = molecular target: T1, PfCRT^Dd2 (Plasmodium falciparum, UniProt Q9N623, A220S/I356T/K76T/M74I/N326S/N75E/Q271E/R371I); assay: cell-based; conditions: mean ± SEM, n = 5, SEM
# Protocol: (§1) The characterisation of [^3H]VF-6 transport via 23 different field and laboratory-derived isoforms of PfCRT was undertaken with oocytes two days post-cRNA-injection (Figs. 3a–j, 4; Supplementary Fig. 2). The oocytes were injected with 25 nL of ND96 buffer (pH 5.5) supplemented with [^3H]VF-6 and unlabelled VF-6 to achieve estimated intracellular concentrations of 1.4 and 200 μM, respectively. Ten oocytes that had resealed at the injection site were transferred to a 5 mL polystyrene round bottom tube (In Vitro Technologies) and washed with 3.5 mL of ND96 buffer before being transferred to separate wells of a white 96-well plate (PerkinElmer). This treatment served to establish the amount of radioactivity within the oocytes immediately prior to the commencement of the transport assay. Another 10 resealed oocytes were transferred to a 5 mL tube and washed with 3.5 mL of ND96 buffer. […] The assay was terminated by removing the reaction buffer with a pipette and washing the oocytes twice with 3.5 mL of ice-cold ND96 buffer. Each oocyte was transferred to a separate well of a white 96-well plate. The oocytes were lysed by the addition of 20 μL of 10% (w/v) SDS and overnight incubation at room temperature. The lysed oocyte was then combined with 150 μL of MicroScint-40 microscintillant (PerkinElmer), the plate covered with a TopSeal-A (PerkinElmer), and the radioactivity measured with a MicroBeta^2 microplate liquid scintillation analyser (PerkinElmer). VF-6 transport was calculated by subtracting the amount of radioactivity (measured in counts per minute) present within the oocytes at the end of the incubation from that measured in the oocytes sampled immediately before the commencement of the assay. The pH-dependence of transport (Fig. 3c) was determined by injecting the oocytes with [^3H]VF-6 suspended in 25 nL ND96 buffer adjusted to pH 5.0, 5.5, 6.0 or 7.0, which corresponded to the injection of 2.5–250 fmol of H^+. The dependence of [^3H]VF-6 transport on Na^+ or Cl^− was examined by injecting the oocytes with [^3H]VF-6 suspended in the control ND96 buffer (pH 5.5) or a version of this buffer that lacked either Na^+ or Cl^− (Supplementary Fig. 2). […] The dependence of peptide transport on Ca^2+ was determined by injecting the oocytes with [^3H]VF-6 suspended in ND96 buffers that contained different concentrations of Ca^2+ (0–5 mM; Supplementary Fig. 2). […] The dependence of PfCRT-mediated transport on the membrane potential was examined by using (1) Na^+ ionophore III in conjunction with the Na^+ gradients listed in Supplementary Data 7 and (2) Cl^− ionophore III in conjunction with the Cl^− gradients listed in Supplementary Data 7 to clamp the membrane potential of the oocyte from −80 to +80 mV. […] The kinetic parameters for VF-6 transport via different isoforms of PfCRT (Figs. 3e and 4a) were determined in SigmaPlot Windows Version 11.0 by a least-squares fit of the Michaelis–Menten equation to the data.
# (§2) A subset of assays measured the ability of solutes known to interact with PfCRT to either cis-inhibit, trans-inhibit or trans-stimulate [^3H]VF-6 transport. These experiments involved adding these solutes to either the cis- or trans-side of the membrane relative to [^3H]VF-6. […] At least five independent experiments were performed (on different days and using oocytes from different frogs), and within each experiment measurements were made from ten oocytes per treatment.
# [2] = molecular target: T2, PfCRT^3D7 (Plasmodium falciparum, UniProt Q8IBZ9); assay: cell-based; conditions: mean ± SEM, n = 5, SEM
# Protocol: as §1, §2
# [3] = molecular target: T3, PfCRT^Ecu1110 (Plasmodium falciparum, UniProt Q9N623, A220S/I356L/K76T/N326D); assay: cell-based; conditions: mean ± SEM, n = 5, SEM
# Protocol: as §1, §2
# [4] = molecular target: T1, PfCRT^Dd2; assay: [3H]CQ uptake into Xenopus oocytes, cis-inhibition by unlabelled solute; format: cell-based; conditions: PfCRTDd2 oocytes, background [3H]CQ accumulation subtracted, normalised to oocyte type control
# Method in brief: (§3)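 Radioactivity accumulated per oocyte, read by liquid scintillation after 10% SDS lysis, served as the uptake measure. Incubations ran 1.5 h at 27.5 °C in ND96 at pH 5.5, matching digestive-vacuole acidity.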
# [5] = molecular target: T3, PfCRT^Ecu1110; assay: as above; format: cell-based; conditions: for PfCRT-mediated [3H]CQ transport, cis-inhibition (% PfCRTEcu1110 control): PfCRTEcu1110 oocytes, background [3H]CQ accumulation subtracted, normalised to oocyte type control; for [3H]CQ transport (% PfCRTEcu1110 control), cis-inhibition, PfCRTEcu1110: PfCRT-mediated component (background subtracted), sheet title says normalised to PfCRTDd2 control, mean ± SEM, SEM
# Method in brief: as §3
# [6] = test system: PfCRT; assay: Potential co-substrates tested for influx of VF-6 via PfCRT into the oocyte; format: cell-based, Plasmodium falciparum; design: key: X: Compounds that have been tested as potential co-substrates but are not required for influx of VF-6 via PfCRT into the oocyte
# [7] = molecular target: T1, PfCRT^Dd2; assay: cell-based; format: cell-based; conditions: for PfCRT-mediated [3H]CQ transport, trans-stimulation (% PfCRTDd2 control): PfCRTDd2 oocytes, normalised to oocyte type control; for [3H]CQ transport (% PfCRTDd2 control), trans-stimulation, PfCRTDd2: PfCRT-mediated component (background subtracted), mean ± SEM, SEM
# Method in brief: (§4)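 Transport measured in Xenopus oocytes expressing the transporters, 1.5 h at 27.5 °C in ND96 pH 5.5 unless noted. For trans-stimulation, VF-6 injected in 25 nL ND96 at pH 5.0–7.0 or Na^+-free (choline) buffer; intracellular levels based on ~400 nL oocyte volume. Ten oocytes per treatment, ≥4 experiments.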
# [8] = molecular target: T2, PfCRT^3D7; assay: cell-based; format: cell-based; conditions: PfCRT3D7 oocytes, normalised to oocyte type control
# Method in brief: as §4
# [9] = molecular target: T3, PfCRT^Ecu1110; assay: cell-based; format: cell-based; conditions: for PfCRT-mediated [3H]CQ transport, trans-stimulation (% PfCRTEcu1110 control): PfCRTEcu1110 oocytes, normalised to oocyte type control; for [3H]CQ transport (% PfCRTDd2 control), trans-stimulation, PfCRTEcu1110: PfCRT-mediated component (background subtracted), sheet title says normalised to PfCRTDd2 control, mean ± SEM, SEM
# Method in brief: as §4
# [10] = [test solute]i = 5 mM (intracellular)
# [11] = [test solute]i = 45 mM (intracellular; 30 mM for some solutes due to solubility)
# [12] = [test solute]i = 5 mM (injected)
# [13] = [test solute]i = 45 mM (30 mM for some solutes due to solubility)
# T1 sequence (Q9N623 whole entry A220S/I356T/K76T/M74I/N326S/N75E/Q271E/R371I, canonical isoform): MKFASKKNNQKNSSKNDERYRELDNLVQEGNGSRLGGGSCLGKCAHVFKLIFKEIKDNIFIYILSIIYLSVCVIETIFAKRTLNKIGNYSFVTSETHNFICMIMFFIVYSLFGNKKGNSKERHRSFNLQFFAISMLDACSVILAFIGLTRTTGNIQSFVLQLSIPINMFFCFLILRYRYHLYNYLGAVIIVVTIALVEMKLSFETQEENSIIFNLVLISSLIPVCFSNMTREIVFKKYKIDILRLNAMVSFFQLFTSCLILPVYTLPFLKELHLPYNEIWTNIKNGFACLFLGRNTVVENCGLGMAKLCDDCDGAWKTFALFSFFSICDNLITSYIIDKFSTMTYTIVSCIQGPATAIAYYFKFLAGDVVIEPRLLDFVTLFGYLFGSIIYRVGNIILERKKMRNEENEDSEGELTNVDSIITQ
# T3 sequence (Q9N623 whole entry A220S/I356L/K76T/N326D): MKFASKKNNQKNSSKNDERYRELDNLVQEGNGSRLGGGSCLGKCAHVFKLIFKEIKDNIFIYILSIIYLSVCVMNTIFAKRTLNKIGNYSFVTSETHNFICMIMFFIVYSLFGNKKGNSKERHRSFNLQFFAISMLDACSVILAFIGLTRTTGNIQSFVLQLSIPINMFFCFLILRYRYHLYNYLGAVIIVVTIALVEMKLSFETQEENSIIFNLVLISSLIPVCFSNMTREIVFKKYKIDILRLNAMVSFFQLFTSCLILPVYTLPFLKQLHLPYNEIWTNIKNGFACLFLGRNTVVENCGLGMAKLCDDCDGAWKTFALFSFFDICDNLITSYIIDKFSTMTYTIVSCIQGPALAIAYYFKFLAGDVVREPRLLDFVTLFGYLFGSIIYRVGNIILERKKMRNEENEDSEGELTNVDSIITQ
# T2 sequence (Q8IBZ9 59-398): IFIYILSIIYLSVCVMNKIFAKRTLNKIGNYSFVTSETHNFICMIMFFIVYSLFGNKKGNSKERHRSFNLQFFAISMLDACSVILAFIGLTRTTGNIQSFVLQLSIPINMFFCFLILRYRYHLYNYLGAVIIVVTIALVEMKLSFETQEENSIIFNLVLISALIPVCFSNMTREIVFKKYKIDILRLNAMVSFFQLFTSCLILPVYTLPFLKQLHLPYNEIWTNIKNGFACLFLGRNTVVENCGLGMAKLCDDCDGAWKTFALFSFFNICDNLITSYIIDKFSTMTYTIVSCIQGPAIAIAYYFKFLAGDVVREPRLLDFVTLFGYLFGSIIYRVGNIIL
Compound,"PfCRT-mediated [3H]CQ transport, cis-inhibition (% PfCRTDd2 control) ([4]; [test solute] = 0.5 mM)","PfCRT-mediated [3H]CQ transport, cis-inhibition (% PfCRTDd2 control) ([4]; [test solute] = 1 mM)","PfCRT-mediated [3H]CQ transport, cis-inhibition (% PfCRTDd2 control) ([4]; [test solute] = 2 mM)","PfCRT-mediated [3H]CQ transport, cis-inhibition (% PfCRTEcu1110 control) ([5]; [test solute] = 0.5 mM)","PfCRT-mediated [3H]CQ transport, cis-inhibition (% PfCRTEcu1110 control) ([5]; [test solute] = 1 mM)","PfCRT-mediated [3H]CQ transport, cis-inhibition (% PfCRTEcu1110 control) ([5]; [test solute] = 2 mM)","[3H]CQ transport (% PfCRTEcu1110 control), cis-inhibition, PfCRTEcu1110 ([5]; [test solute] = 2 mM)",Tested as potential co-substrate but not required for influx of VF-6 via PfCRT into the oocyte [6],"PfCRT-mediated [3H]CQ transport, trans-stimulation (% PfCRTDd2 control) [7, 10]","PfCRT-mediated [3H]CQ transport, trans-stimulation (% PfCRTDd2 control) [7, 11]","[3H]CQ transport (% PfCRTDd2 control), trans-stimulation, PfCRTDd2 [7, 12]","[3H]CQ transport (% PfCRTDd2 control), trans-stimulation, PfCRTDd2 [7, 13]","PfCRT-mediated [3H]CQ transport, trans-stimulation (% PfCRT3D7 control) [8, 10]","PfCRT-mediated [3H]CQ transport, trans-stimulation (% PfCRT3D7 control) [8, 11]","PfCRT-mediated [3H]CQ transport, trans-stimulation (% PfCRTEcu1110 control) [9, 10]","PfCRT-mediated [3H]CQ transport, trans-stimulation (% PfCRTEcu1110 control) [9, 11]","[3H]CQ transport (% PfCRTDd2 control), trans-stimulation, PfCRTEcu1110 [9, 12]","[3H]CQ transport (% PfCRTDd2 control), trans-stimulation, PfCRTEcu1110 [9, 13]",further results
"CN(C)CCC(c1ccc(Cl)cc1)c1ccccn1 (stereo not shown) [CP, chlorpheniramine, reference compound]",–,–,–,–,–,–,–,–,–,–,–,–,–,–,–,–,–,–,"IC50 ([1]; Cis-inhibition IC50 of [3H]VF-6 transport, PfCRTDd2, drug on same side as [3H]VF-6): 5 ± 1.1 µM; IC50 ([1]; Trans-inhibition IC50 of [3H]VF-6 transport, PfCRTDd2, drug on opposite side to [3H]VF-6): 8.8 ± 0.3 µM; IC50 ([2]; drug on opposite side to [3H]VF-6, read-out: Trans-inhibition IC50 of [3H]VF-6 transport, PfCRT3D7): 12 ± 0.7 µM; IC50 ([2]; drug on same side as [3H]VF-6, read-out: Cis-inhibition IC50 of [3H]VF-6 transport, PfCRT3D7): 9.8 ± 0.5 µM; IC50 ([3]; Cis-inhibition IC50 of [3H]VF-6 transport, PfCRTEcu1110, drug on same side as [3H]VF-6): 6.2 ± 0.3 µM; IC50 ([3]; Trans-inhibition IC50 of [3H]VF-6 transport, PfCRTEcu1110, drug on opposite side to [3H]VF-6): 7.2 ± 0.2 µM"
DPVNF [DF-5],38 ± 3.1 % PfCRTDd2 control,27 ± 0.9 % PfCRTDd2 control,15 ± 0.5 % PfCRTDd2 control,40 ± 2.1 % PfCRTEcu1110 control,32 ± 1.6 % PfCRTEcu1110 control,21 ± 1.0 % PfCRTEcu1110 control,7.0 ± 0.1 % PfCRTEcu1110 control,X,101 ± 3.5 % PfCRTDd2 control,113 ± 1.2 % PfCRTDd2 control,101 ± 3.5 % PfCRTDd2 control,113 ± 1.2 % PfCRTDd2 control,128 ± 3.1 % PfCRT3D7 control,158 ± 4.2 % PfCRT3D7 control,120 ± 2.4 % PfCRTEcu1110 control,128 ± 2.9 % PfCRTEcu1110 control,36 ± 1.3 % PfCRTEcu1110 control,39 ± 1.8 % PfCRTEcu1110 control,–
VDPVN [VN-5],42 ± 2.7 % PfCRTDd2 control,30 ± 3.0 % PfCRTDd2 control,19 ± 0.3 % PfCRTDd2 control,52 ± 1.8 % PfCRTEcu1110 control,38 ± 2.6 % PfCRTEcu1110 control,27 ± 0.5 % PfCRTEcu1110 control,9.0 ± 0.2 % PfCRTEcu1110 control,X,101 ± 3.5 % PfCRTDd2 control,112 ± 1.4 % PfCRTDd2 control,101 ± 3.5 % PfCRTDd2 control,112 ± 1.4 % PfCRTDd2 control,131 ± 4.6 % PfCRT3D7 control,181 ± 5.7 % PfCRT3D7 control,128 ± 3.6 % PfCRTEcu1110 control,136 ± 3.5 % PfCRTEcu1110 control,39 ± 1.5 % PfCRTEcu1110 control,41 ± 1.9 % PfCRTEcu1110 control,"[3H]CQ transport (% PfCRTEcu1110 control), cis-inhibition, PfCRTEcu1110 ([5]; [test solute] = 0.5 mM): 16 ± 0.4 % PfCRTEcu1110 control"
